Measurements as given in paper PMC4291531 (The Journal of Experimental Medicine, 2015).

T1: human MD-2 (Homo sapiens, UniProt Q9Y6Y9)
T1 sequence (Q9Y6Y9 19-160): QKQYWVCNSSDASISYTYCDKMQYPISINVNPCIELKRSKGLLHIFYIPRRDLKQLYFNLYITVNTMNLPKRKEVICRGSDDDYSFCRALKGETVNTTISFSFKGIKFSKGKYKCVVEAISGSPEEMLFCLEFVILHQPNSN


How the values were obtained:
[1] = molecular target: human MD-2 (myeloid differentiation factor 2) (human) (UniProt Q9Y6Y9); experiment: SPR
[2] = molecular target: T1, human MD-2; experiment: SPR; type: binding; details: MD-2 coated on chip; for reduction in MD-2 binding as compared with disulfide HMGB1: SPR, HMGB1 isoforms
[3] = tested on: immune cells; details: ref Tang et al., 2012, Venereau et al.; cited from earlier work
[4] = tested on: RAW 264.7 cells; experiment: TNF release from RAW 264.7 cells stimulated with HMGB1 isoforms; details: 1 µg/ml, 16 h, n = 3–5 experiments
[5] = tested on: thioglycollate-elicited peritoneal macrophages (WT and MD-2 KO); type: cell-based; details: MD-2 KO vs WT macrophages; mouse cytokine antibody array
[6] = tested on: WT or MD-2 KO mice; experiment: APAP hepatotoxicity in WT or MD-2 KO mice; type: in vivo, mouse

Sequence of sulfonyl HMGB1 (P63159 whole entry): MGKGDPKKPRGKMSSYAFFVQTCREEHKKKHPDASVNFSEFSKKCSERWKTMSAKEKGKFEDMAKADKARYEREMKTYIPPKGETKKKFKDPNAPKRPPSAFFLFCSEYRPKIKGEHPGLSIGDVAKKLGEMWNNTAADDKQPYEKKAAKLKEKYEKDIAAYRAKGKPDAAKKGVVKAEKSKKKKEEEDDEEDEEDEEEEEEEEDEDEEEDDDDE

Row | Molecule | reduction in MD-2 binding as compared with disulfide HMGB1 [2] | extracellular chemokine/cytokine activity (in words) [3] | TNF release induced by HMGB1 isoform [4] | other results
1 | disulfide HMGB1 (from UniProt P63159 1-215) (natural protein) |  |  |  | Kd [1]: 12 nM
2 | sulfonyl HMGB1: HMGB1 with all cysteines terminally oxidized | > 1,000 fold | devoid of chemotactic and cytokine activities | failed to induce TNF release | 
3 | fully reduced HMGB1: HMGB1 with all cysteine residues reduced (DTT-reduced) | > 1,000 fold | binds to CXCL12 and stimulates immune cell infiltration via the CXCR4 receptor | failed to induce TNF release | 
4 | H2S-modified HMGB1: HMGB1 S-sulfhydrated by incubation with 5 mM NaSH for 3 h at room temperature | > 1,000 fold |  | failed to induce TNF release | 
5 | sulfonyl HMGB1 (from UniProt P63159 1-215) (natural protein) |  |  |  | fold reduction in MD-2 binding against disulfide HMGB1 [1]: > 1000 fold
6 | disulfide HMGB1: recombinant cytokine-stimulating HMGB1; disulfide bond between cysteines 23 and 45 and reduced thiol on cysteine 106 |  | activates immune cells to produce cytokines/chemokines via the TLR4 receptor | induced TNF secretion | MD-2 binding (in words) ([2]; SPR Biacore): binds to MD-2 with high affinity; release of IL-12/p40 stimulated with HMGB1 [5]: via an MD-2–independent mechanism
7 | CC(=O)Nc1ccc(O)cc1 [APAP, acetaminophen] |  |  |  | serum HMGB1 levels, WT and MD-2 KO mice ([6]; 24 h after APAP): comparably elevated in WT and MD-2 KO mice; APAP acute hepatic injury (GLDH, AST, ALT, necrosis), MD-2 KO vs WT ([6]; APAP 400 mg/kg i.p., 24 h, n = 5–13 mice per group): significant reduction in acute hepatic injury; cytokine release and APAP-induced lethality, MD-2 KO vs WT ([6]; APAP i.p. 400 mg/kg (serum, 24 h), 350 mg/kg (survival, n = 15)): significant reduction in cytokine (TNF and IL-6) release and APAP-induced animal lethality
8 | Hg-HMGB1: HMGB1 with mercury thiolate on cysteine at position 106 (protein, UniProt P09429 1-215, looked up, mercury thiolate on C106) High mobility group protein B1: MGKGDPKKPRGKMSSYAFFVQTCREEHKKKHPDASVNFSEFSKKCSERWKTMSAKEKGKFEDMAKADKARYEREMKTYIPPKGETKKKFKDPNAPKRPPSAFFLFCSEYRPKIKGEHPGLSIGDVAKKLGEMWNNTAADDKQPYEKKAAKLKEKYEKDIAAYRAKGKPDAAKKGVVKAEKSKKKKEEEEDEEDEEDEEEEEDEEDEDEEEDDDDE |  |  | Noncytokine-inducing | 
